According to US7816535B2, “Vinyl-phenyl derivatives for inflammation and immune-related uses” (Synta Pharmaceuticals Corp., priority 2006, dated 2010):

Each molecule was assayed on IL-2 production (assay: Inhibition of IL-2 production in PHA-activated Jurkat cells (ELISA)). Conditions: Homo sapiens, Jurkat, 20 h, PHA 2.5 μg/mL, IL-2 ELISA.
Assay type: cell-based
Procedure: Jurkat cells were placed in a 96 well plate (0.5 million cells per well in 1% FBS medium) then a test compound of this invention was added at different concentrations. After 10 minutes, the cells were activated with PHA (final concentration 2.5 μg/mL) and incubated for 20 hours at 37° C. under CO2. The final volume was 200 μL. Following incubation, the cells were centrifuged and the supernatants collected and stored at −70° C. prior to assaying for IL-2 production. A commercial ELISA kit (IL-2 Eli-pair, Diaclone Research, Besancon, France) was used to detect production of IL-2, from which dose response curves were obtained. The IC50 value was calculated as the concentration at which 50% of maximum IL-2 production after stimulation was inhibited versus a non-stimulation control.
`CC(C)=C(c1ccccc1)c1ccc(NC(=O)c2c(F)cccc2F)cc1` [Compound 92, 2,6-Difluoro-N-[4-(2-methyl-1-phenyl-propenyl)-phenyl]-benzamide] showed an IC50 of 43.8 nM. `COc1ccc(C(=C(C)C)c2ccc(NC(=O)c3c(F)cccc3F)cc2)cc1` [Compound 93, 2,6-Difluoro-N-{4-[2-methyl-1-(4-methoxy-phenyl)-propenyl]-phenyl}-benzamide] gave an IC50 of 54.6 nM. Work on `COc1cccc(C(=C(C)C)c2ccc(NC(=O)c3c(F)cccc3F)cc2)c1` [Compound 94, 2,6-Difluoro-N-{4-[2-methyl-1-(3-methoxy-phenyl)-propenyl]-phenyl}-benzamide] yielded an IC50 of 138 nM. For `COc1ccccc1C(=C(C)C)c1ccc(NC(=O)c2c(F)cccc2F)cc1` [Compound 95, 2,6-Difluoro-N-{4-[2-methyl-1-(2-methoxy-phenyl)-propenyl]-phenyl}-benzamide], the IC50 was 156 nM. `CC(=O)OCC(C)=C(C)c1ccc(NC(=O)c2c(F)cccc2F)cc1` [Compound 96, 2,6-Difluoro-N-[4-(1,2-dimethyl-3-acetoxy-propenyl)-phenyl]-benzamide] gave an IC50 of 631 nM. Work on `CCOC(=O)C1=C(c2ccc(NC(=O)c3c(F)cccc3F)cc2)CCCC1` [Compound 99, N-[4-(2-ethyoxycarbonyl-cyclohex-1-enyl)-phenyl]-2,6-difluoro-benzamide] yielded an IC50 of 282 nM. `O=CC1=C(c2ccc(NC(=O)c3c(F)cccc3F)cc2)CCCC1` [Compound 100, N-[4-(2-formyl-cyclohex-1-enyl)-phenyl]-2,6-difluoro-benzamide] was tested, and the IC50 was 90 nM. Work on `C=CC1=C(c2ccc(NC(=O)c3c(F)cccc3F)cc2)CCCC1` [Compound 101, N-[4-(2-vinyl-cyclohex-1-enyl)-phenyl]-2,6-difluoro-benzamide] yielded an IC50 of 11 nM. Work on `COC(=O)N1CCC(C)=C(c2ccc(NC(=O)c3ccncc3C)cc2)C1` [Compound 103, N-[4-(1-methoxycarbonyl-4-methyl-1,2,5,6-tetrahydro-pyridin-3-yl)-phenyl]-3-methyl-isonicotinamide] yielded an IC50 of 150 nM.
